Measured values taken from patent US20140378551A1, “Composition for the Prophylactic Treatment of Neuropathic Pain” (Universite d'Auvergne, priority 2011, published 2014).
Read-outs that look alike come from different tables or passages of the source.

Tests used:
[1] = test system: neuropathic pain induced by spinal nerve ligation among rats; assay: Y-Maze test: spatial memory, spinal nerve ligation model; assay type: in vivo, rat
Method: The effects of the prolonged and preventive administration of memantine were first of all studied among rats. The model used was that of the ligation of the spinal nerve L5 (herein after called SNL for spinal nerve ligation) among rats. The emergence of neuropathic pain is assessed according to the following criteria: • the behavior of the rat following the spinal nerve ligation (SNL), • cognition, and • molecular events, including the expression of phosphorylated tyrosine 1472 of the NR2B sub-unit of the NMDA receptor at the spinal level.
The study was based on the comparison of the two main groups of animals. The first group was a control group. The rats of the control group, designated as “Sham” in the graphs, underwent no operation. They are used to assess the role of the injected substances on the individual, without there being any emergence of neuropathic pain.
Two sub-groups were set up in this group: • one sub-group treated with the vehicle which is a saline solution of NaCl 0.9% by mass, in a dose of 1 mL/kg/rat/day, by intraperitoneal injection; and • one sub-group treated with memantine in a dose of 20 mg/kg/rat/day, by intraperitoneal injection. […]
The rat is placed in the middle of a chamber with three arms, each 40 cm long and 4 cm wide. The rat moves around freely in the different arms for five minutes and the number of entries into each of the arms is counted up. […]

neuropathic pain in rats = settings: sciatic nerve ligature or formalin injection, administered during or after the operation (Eisenberg 1995; Carlton 1995), cited from earlier work
[2] = test system: tyrosine 1472 of the NR2B sub-unit of the NMDA receptor; assay: Western blot of phosphorylated tyrosine 1472 of NR2B at the spinal level; assay type: in vivo, rat
Method: The effects of memantine are also evaluated in the expression of the phosphorylation of tyrosine 1472 of the NR2B sub-unit of the NMDA receptor at the spinal level by the Western-blot technique.
The rats are sacrificed by decapitation. The lumbar enlargements (L4-L6) are collected and subjected to lysis at 4° C. in 400 μL of stop buffer (50 mM Hepes, pH 7.5, containing 150 mM NaCl, 10 mM EDTA, 10 mM Na2P2O7, 2 mM Na3VO4, 100 mM NaF 1% Triton, 0.5 mM PMSF, 100 UI/mL Iniprol and 20 μM Leupeptine).
After sonication, two operations of centrifugation at 14,000 rpm at 4° C. are used to retrieve the proteins from the cytoplasm. The supernatant is retrieved and the proteins are determined by colorimetry (BC Assay UP40840A®, Interchim). They are denatured at 100° C. for five minutes in a buffer Tris 100 mM, pH 6.8, containing 6% SDS, 20% Glycerol and 20% bromophenol/(β-mercaptoethanol. Electrophoresis is used to separate the proteins on a polyacrylamide gel. The migration is done at 90 mA for two hours in the following buffer: Tris 50 mM, pH 7.4, containing 380 mM Glycine and 7 mM SDS. The proteins are then transferred to a nitrocellulose membrane (Millipore) for three hours in a buffer Tris 25 mM, pH 8.3, containing 190 mM Glycine, 20% methanol (percentage by volume). The protocols are carried out according to the recommendations of the supplier and differ according to the antibody considered.
After blocking of the non-specific sites with a solution containing 5% of non-fat dried milk, the membrane is incubated throughout the night at […] under agitation with the antibody of interest diluted in the blocking solution, namely an anti-pTyr^1472 NR2B antibody recognizing NR2B phosphorylated on tyrosine 1472 (dilution by volume=1/1000, Millipore).
The membrane is then hybridized for one hour under agitation with an antibody coupled with peroxydase (dilution by volume=1/10 000, Pierce) diluted in the blocking buffer.
The developing is done by chemiluminescence (Super Signal® West Pico
Chemiluminescent Substrate, Pierce). […]

## CC12CC3CC(C)(C1)CC(N)(C3)C2 [memantine, 1-amino-3,5-dimethyl-adamantane]
[1]; SNL rats, memantine for the 4 days preceding operation and days following
  capacity of exploration (time passed in exploring the arms): this capacity is restored
[1]; rats without ligation, injection for one week, compared with normal rats
  capacity of exploration (time passed in exploring the arms): does not significantly modify the capacity of exploration of the rat
Neuropathic pain in rats
  development of neuropathic pain in rats: limits the appearance of symptoms of neuropathic pain but only dose-dependently and only for a determined period of time
Neuropathic pain in rats; listed as Memantine
  development of neuropathic pain in rats: positive effect in the development of neuropathic pain in rats
[2]; SNL rats treated preventively, spinal cord, Western blot
  rate of phosphorylation of the tyrosine 1472 residue of NR2B: equivalent firstly to that of the non-treated Sham rats and is secondly far lower than that of the operated rats that have not been treated with memantine
[2]; Sham rats, spinal cord, Western blot
  phosphorylation of the tyrosine 1472 residue of NR2B: does not significantly diminish the phosphorylation of the tyrosine 1472 residue
[2]; summary statement
  phosphorylation of the tyrosine residue at position 1472 (pTyr1472) of NR2B: significantly inhibits the phosphorylation
